According to ChEMBL document CHEMBL1158688, “Synthesis and characterization of the 7-(4-aminomethyl-1H-1,2,3-triazol-1-yl) analogue of kabiramide C” (J Nat Prod, 2005):
The source made the active and inactive calls. No cut-off for these calls is given here.

Organism: Oryctolagus cuniculus
Test: Binding affinity to rabbit Prodan-labeled G-actin

`CO[C@H]([C@H](C)/C=C/N(C)C=O)[C@@H](C)C(=O)CC[C@H](C)[C@@H](C[C@@H]1OC(=O)CC(OC(N)=O)C[C@H](C)C[C@@H](n2cc(CNC(=O)OCC3c4ccccc4-c4ccccc43)nn2)[C@H](C)[C@@H](OC)c2coc(n2)-c2coc(n2)-c2coc(n2)/C=C/C[C@H](OC)[C@H]1C)OC` (stereo partly drawn) was tested, and the Activity was “Active”.

`CO[C@H]([C@H](C)/C=C/N(C)C=O)[C@@H](C)C(=O)CC[C@H](C)[C@@H](C[C@@H]1OC(=O)CC(OC(N)=O)C[C@H](C)C[C@@H](n2cc(CN)nn2)[C@H](C)[C@@H](OC)c2coc(n2)-c2coc(n2)-c2coc(n2)/C=C/C[C@H](OC)[C@H]1C)OC` (stereo partly drawn) was tested, and the Activity was “Active”.

`CO[C@H]([C@H](C)/C=C/N(C)C=O)[C@@H](C)C(=O)CC[C@H](C)[C@@H](C[C@@H]1OC(=O)CC(OC(N)=O)C[C@H](C)C[C@@H](N=[N+]=[N-])[C@H](C)[C@@H](OC)c2coc(n2)-c2coc(n2)-c2coc(n2)/C=C/C[C@H](OC)[C@H]1C)OC` (stereo partly drawn) was tested, and the Activity was “Active”.
